The target in one test is human KOPR (hKOPR) (Homo sapiens (Human), UniProt P41145). The test is classed as binding.
The next test concerns the target hKOPR (Homo sapiens (Human), UniProt P41145). The experiment in a line: biochemical. The conditions noted are these: for Emax: read-out: Efficacy (Percent of the maximal effect of U50,488H).
The next test is described as follows: Locomotor activity. It counts as in vivo. The conditions noted are these: rats.
Test [1] is described as follows: Intracranial self-stimulation (ICSS). To be noted: 1.0 mg/kg, IP, rats, 1-hour test sessions. It counts as in vivo.
A further test is described as follows: Forced swim test (FST). The test is classed as in vivo. The conditions noted are these: rats. As for the experimental part:
The FST is a two day procedure in which rats swim under conditions in which escape is not possible. On the first day, the rats are forced to swim for 15 minutes. The rats initially search for an escape from the water, but eventually adopt a posture of immobility in which they make only the movements necessary to keep their heads above water. Upon re-testing one day later, latencies to become immobile (an indicator of how rapidly the rats “give up” in response to a familiar stressor) are decreased, which is inferred as despair. Standard antidepressants such as desipramine (DMI) and fluoxetine (FLX) extend latencies to become immobile. Drug efficacy in this animal model is predictive of antidepressant efficacy in humans. The FST has been described by Mague et al., J. Pharmacol. Exp. Ther. 305:323 (2003).

Where two headings read alike, the source gives them in different places. Where only a bound is given, the exact number is not on record here.

For `C=Cc1occc1[C@@H]1C[C@]2(C)[C@H]3C(=O)[C@@H](OC(C)=O)C[C@@H](C(=O)OC)[C@]3(C)CC[C@H]2C(=O)O1` [Compound 3], the Ki (commonly a measure of affinity in units of concentration, obtained from inhibition or displacement) on human KOPR (hKOPR) came to 7.1 ± 0.1 nM. Moreover, the EC50 (usually the concentration at which the effect is half-maximal) at hKOPR (read-out: EC50) amounted to 4.6 ± 0.1 nM. Moreover, on hKOPR, the Emax worked out at 120 ± 6%.
`COC(=O)[C@@H]1C[C@H](OC(C)=O)C(=O)[C@H]2[C@@]1(C)CCC1C(=O)O[C@H](C(=O)O)C[C@@]12C` (some centres unmarked) [Compound 7]: the inhibitory constant (Ki) at human KOPR (hKOPR) amounted to 55 ± 23 nM. Further, the “Efficacy (Percent of the maximal effect of U50,488H)” value on hKOPR came to 99 ± 1%. The EC50 on hKOPR (read-out: EC50) was determined as 167 ± 35 nM.
In turn, `COC[C@@H]1C[C@]2(C)[C@H]3C(=O)[C@@H](OC(C)=O)C[C@@H](C(=O)OC)[C@]3(C)CC[C@H]2C(=O)O1` [Compound 9] returned a Ki at human KOPR (hKOPR) of 498 ± 71 nM. The EC50 at hKOPR (read-out: EC50) was found to be 330 ± 30 nM. For the same compound, at hKOPR, the Emax was 98 ± 2%.
The compound `CCOC[C@@H]1C[C@]2(C)[C@H]3C(=O)[C@@H](OC(C)=O)C[C@@H](C(=O)OC)[C@]3(C)CC[C@H]2C(=O)O1` [Compound 10] came in with a Ki at human KOPR (hKOPR) of 497 ± 13 nM. Also, at hKOPR, the EC50 is more than 1000 nM.
With `COC(=O)[C@@H]1C[C@H](OC(C)=O)C(=O)[C@H]2[C@@]1(C)CC[C@H]1C(=O)O[C@H](COC(C)=O)C[C@]21C` [Compound 11], the inhibitory constant (Ki) at human KOPR (hKOPR) was 555 ± 97 nM. Moreover, the half-maximal effective concentration (EC50) on hKOPR (read-out: EC50) is 299 ± 13 nM. Moreover, the Emax at hKOPR was 113 ± 3%.
In the same order, the values of `COC(=O)[C@@H]1C[C@H](OC(C)=O)C(=O)[C@H]2[C@@]1(C)CC[C@H]1C(=O)O[C@H](C(=O)c3cccs3)C[C@]21C` [Compound 13] are 38 ± 10 nM, 101 ± 6 nM and 103 ± 1%.
In the same order, the values of `COC(=O)[C@@H]1C[C@H](OC(C)=O)C(=O)[C@H]2[C@@]1(C)CC[C@H]1C(=O)O[C@H](C(=O)c3cnccn3)C[C@]21C` [Compound 16] are 83 ± 28 nM, 195 ± 6 nM and 103 ± 3%.
In the same order, the values of `COC(=O)[C@@H]1C[C@H](OC(C)=O)C(=O)[C@H]2[C@@]1(C)CC[C@H]1C(=O)O[C@H](C(O)c3ccco3)C[C@]21C` (some centres unmarked) [Compound 17] are 20 ± 2 nM, 36 ± 5 nM and 114 ± 4%.
At human KOPR (hKOPR), `COC(=O)[C@@H]1C[C@]2(C)[C@H]3C(=O)[C@@H](OC(C)=O)C[C@@H](C(=O)OC)[C@]3(C)CC[C@H]2C(=O)O1` [Compound 18] showed a Ki of 154 ± 27 nM. Also, on hKOPR (read-out: EC50), the EC50 is 361 ± 25 nM. Besides, the Emax on hKOPR is 99 ± 2%.
In the same order, the values of `CCOC(=O)[C@@H]1C[C@]2(C)[C@H]3C(=O)[C@@H](OC(C)=O)C[C@@H](C(=O)OC)[C@]3(C)CC[C@H]2C(=O)O1` [Compound 19] are 196 ± 23 nM, 508 ± 8 nM and 94 ± 2%.
Turning to `COC(=O)[C@@H]1C[C@H](OC(C)=O)C(=O)[C@H]2[C@@]1(C)CC[C@H]1C(=O)O[C@H](C(=O)OC(C)C)C[C@]21C` [Compound 20], the Ki on human KOPR (hKOPR) worked out at 109 ± 12 nM. In addition, the EC50 at hKOPR (read-out: EC50) worked out at 337 ± 54 nM. Further, the Emax on hKOPR was determined as 94 ± 2%.
Consider `COC(=O)[C@@H]1C[C@H](OC(C)=O)C(=O)[C@H]2[C@@]1(C)CC[C@H]1C(=O)O[C@H](c3ccoc3)C[C@]21C` [Salvinorin A, salvinorin A], for which the “effect on locomotor activity” value in “Locomotor activity” was “without affecting locomotor activity”. The ICSS thresholds result in test [1] is on record as “significantly elevated”. In “Forced swim test (FST)”, the “effect in the forced swim test” value is recorded as “depressive-like effects”.

Source of the values: patent US8492564B2 (priority 2008, dated 2013).
